Measurements from PMC6149849, “Cymantrenyl-Nucleobases: Synthesis, Anticancer, Antitrypanosomal and Antimicrobial Activity Studies” (Molecules : A Journal of Synthetic Chemistry and Natural …, 2017).
Values after ≈ are worked out from the molar mass of the structure shown.

Tests used:
[1] = system: S. aureus ATCC 29213 (MSSA); test: Antibacterial liquid microdilution (CLSI M07-A8); format: cell-based, Staphylococcus aureus; conditions: 18 to 24 h
Description: (§1) Organometallic compounds play an increasingly important role in the search for new antibacterial agents. We, therefore, thought to investigate also the bactericidal activity of the newly synthesized cymantrenes 1–7, compound C and CymH. The antibacterial activity of the compounds was tested against Gram-positive methicillin-sensitive Staphylococcus aureus (MSSA), methicillin-resistant S. aureus (MRSA), vancomycin-intermediate S. aureus (VISA), S. epidermidis, and Gram-negative Escherichia coli bacterial strains, and expressed as minimal inhibitory concentration (MIC) values (Table 3).
(§2) The antibacterial activity of CymH, 1–7 and C and the reference drugs penicillin G and polymyxin B was tested by the liquid microdilution method under standard conditions using twofold dilution series, as described in the Clinical and Laboratory Standards Institute (CLSI), reference method M07-A8, and expressed as minimal inhibitory concentration (MIC) values. A panel of Gram-positive bacterial strains, S. aureus ATCC® 29213 (sensitive to methicillin, (MSSA)), S. aureus ATCC® 43300 (resistant to methicillin, (MRSA)), S. aureus ATCC 700787™ (intermediate to vancomycin, (VISA)), and S. epidermidis ATCC 12228™, and one Gram-negative, strain E. coli ATCC BAA-198™ (ESBL) were used. In addition, four clinical isolates of S. aureus (MSSA and MRSA) and two clinical isolates of S. epidermidis that were collected from different patients at the Medical University of Warsaw, Poland, were also tested. The bacterial cells were cultivated on tryptic soy agar (TSA) and nutrient agar (NA), according to ATCC recommendations. All of the strains were incubated at 37 °C. Tested compounds were dissolved in DMSO and then serially diluted twofold with cation-adjusted Mueller-Hinton broth (CAMHB). Then, 95 µL of the dilutions were dispensed into microdilution sterile plates (Mar-Four), followed by the addition of 5 µL of bacteria inoculum containing 5 × 10^4 CFU/mL. The final concentrations of the compounds ranged from 512 to 2 µg/mL. Each compound was tested in triplicate, and Penicillin G (8–0.15 µg/mL) and Polymyxin B (256–0.0625 µg/mL) were used as controls. The plates were incubated at 37 °C for 18 to 24 h depending on the bacterial strain. Thereafter, the absorbance was measured at λ = 540 nm and λ = 595 nm using a Spectrostar Omega microplate reader (BMG Labtech, Offenburg, Germany). The MIC value was defined as the lowest concentration of a compound that reduced the growth by 100%.

[2] = system: S. aureus ATCC 43300 (MRSA); test: Antibacterial liquid microdilution (CLSI M07-A8); format: cell-based, Staphylococcus aureus; conditions: 18 to 24 h
Description: as §1, §2

[3] = system: S. aureus ATCC 700787 (VISA); test: Antibacterial liquid microdilution (CLSI M07-A8); format: cell-based, Staphylococcus aureus; conditions: 18 to 24 h
Description: as §1, §2

[4] = system: Clinical S. aureus (MRSA) 44/12; test: Antibacterial liquid microdilution, clinical isolate; format: cell-based, Staphylococcus aureus
Description: (§3) This lack of activity against E. coli can be probably explained by an impeded cellular uptake of the compounds through the Gram-negative cell wall that consists of two layers and effective protein efflux pump systems. The antibacterial activities of 1 and C were further tested against four clinical isolates of S. aureus and two clinical isolates of S. epidermidis (Table 4).
as §2

[5] = system: Clinical S. aureus (MSSA) 26/11; test: as above; format: cell-based, Staphylococcus aureus
Description: as §3, §2

[6] = system: Clinical S. aureus (MSSA) 30/11; test: as above; format: cell-based, Staphylococcus aureus
Description: as §3, §2

[7] = system: Clinical S. aureus (MRSA) 31/12; test: as above; format: cell-based, Staphylococcus aureus
Description: as §3, §2

[8] = system: Clinical S. epidermidis (MSSA) 37/12; test: as above; format: cell-based, Staphylococcus epidermidis
Description: as §3, §2

[9] = system: Clinical S. epidermidis (MSSA) 43/12; test: as above; format: cell-based, Staphylococcus epidermidis
Description: as §3, §2

[10] = system: E. coli ATCC BAA-198 (ESBL); test: Antibacterial liquid microdilution (CLSI M07-A8); format: cell-based, Escherichia coli
Description: as §1, §2

[11] = system: S. epidermidis ATCC 12228; test: Antibacterial liquid microdilution (CLSI M07-A8); format: cell-based, Staphylococcus epidermidis
Description: as §1, §2

[12] = in vitro; conditions: human
Description: (§4) All of the cultures were maintained at 37 °C in a humidified atmosphere containing 5% of CO2. Toxicity assays were performed, as previously described, with some modifications. In brief, trypanosomes and HL-60 cells were seeded at an initial cell density of 10^4/mL and 5 × 10^4/mL, respectively, in 96-well plates in a final volume of 200 μL culture medium containing various concentrations of test compounds dissolved in 100% DMSO. […] The controls contained DMSO alone. In all of the experiments, the final DMSO concentration was 0.9%. After 24 h incubation, 20 µL of a 0.5 mM resazurin solution prepared in PBS was added and the cultures were incubated for a further 48 h. Resazurin is a vital dye that, when being reduced by living cells, changes its colour from blue to pink. Thus, by measuring absorbance, the proliferation of cells can be easily determined. The change in absorbance was read with a microplate reader using a test wavelength of 570 nm and a reference wavelength of 630 nm. GI50 values were calculated by linear interpolation according to the method described by Huber and Koella. MIC values were determined microscopically.

[13] = system: human myeloid leukemia HL-60 cells; test: in vitro; conditions: human, 72 h
Description: as §4

[14] = system: bloodstream forms of T. brucei clone 427-221a; test: Trypanocidal assay, resazurin viability assay; format: cell-based, Trypanosoma brucei
Description: as §4

For CC1(C)S[C@@H]2[C@H](NC(=O)Cc3ccccc3)C(=O)N2[C@H]1C(=O)O [penicillin G, reference compound], the MIC ([1]; Staphylococcus aureus) was 2 µg/mL (≈ 5.98 µM), the MIC ([2]; Staphylococcus aureus) was 16 µg/mL (≈ 47.8 µM) and the MIC ([3]; Staphylococcus aureus) was 32 µg/mL (≈ 95.7 µM). It also gave an MIC ([4]; Staphylococcus aureus, MRSA) of 8 µg/mL (≈ 23.9 µM), an MIC ([5]; Staphylococcus aureus, MSSA) of 0.5 µg/mL (≈ 1.5 µM) and an MIC ([6]; Staphylococcus aureus, MSSA) of 2 µg/mL (≈ 5.98 µM). The MIC ([7]; Staphylococcus aureus, MRSA) was 32 µg/mL (≈ 95.7 µM), the MIC ([8]; Staphylococcus epidermidis, MSSA, read-out: MIC, Clinical S. epidermidis 37/12) was 16 µg/mL (≈ 47.8 µM) and the MIC ([9]; Staphylococcus epidermidis, MSSA) was 8 µg/mL (≈ 23.9 µM). The MIC ([10]; Escherichia coli, ATCCBAA198, 18 to 24 h) was > 256 µg/mL and the MIC ([11]; Staphylococcus epidermidis, ATCC12228, 18 to 24 h) was 2 µg/mL (≈ 5.98 µM).

For Cc1ccc(C(=O)Nc2ccc(S(=O)(=O)O)c3cc(S(=O)(=O)O)cc(S(=O)(=O)O)c23)cc1NC(=O)c1cccc(NC(=O)Nc2cccc(C(=O)Nc3cc(C(=O)Nc4ccc(S(=O)(=O)O)c5cc(S(=O)(=O)O)cc(S(=O)(=O)O)c45)ccc3C)c2)c1 [Suramin, suramin, reference compound], the GI50 at 72 h [12] was > 100000 nM, the “HL-60 MIC” value [13] was >100 µM and the GI50 ([14]; Trypanosoma brucei, 50% growth inhibition) was 39 ± 3 nM. For the same compound, the MIC ([14]; Trypanosoma brucei, concentration at which all cells were killed, determined microscopically) was 0.1 to 1 µM (≈ 0.13 to 1.3 µg/mL) and the “Selectivity GI50 Ratio” value ([14]; ratio of cytotoxic (HL-60) to trypanocidal (T. brucei) activity) was >2564.

In the case of polymyxin B [reference compound], the “MIC, S. aureus ATCC 29213 (MSSA)” value [1] is reported as 256 µg/mL, the “MIC, S. aureus ATCC 43300 (MRSA)” value [2] is reported as 256 µg/mL and the “MIC, S. aureus ATCC 700787 (VISA)” value [3] is reported as >256 µg/mL. For the same compound, the “MIC, Clinical S. aureus (MRSA) 44/12” value [4] was 256 µg/mL, the “MIC, Clinical S. aureus (MSSA) 26/11” value [5] was 256 µg/mL and the “MIC, Clinical S. aureus (MSSA) 30/11” value [6] was 256 µg/mL. For the same compound, the “MIC, Clinical S. aureus (MRSA) 31/12” value [7] was 256 µg/mL, the “MIC, Clinical S. epidermidis (MSSA) 37/12” value [8] was 128 µg/mL and the “MIC, Clinical S. epidermidis (MSSA) 43/12” value [9] was 64 µg/mL. The “MIC, E. coli ATCC BAA-198” value ([10]; 18 to 24 h) was 0.125 µg/mL and the “MIC, S. epidermidis ATCC 12228” value ([11]; 18 to 24 h) was 64 µg/mL.
